Tests used:
Format in all cases: cell-based
[1] = biological target: DOR (Homo sapiens, UniProt P41143); assay: DOR calcium mobilization agonist/antagonist screen (CHO-RD-HGA16 cells); parameters: host or cells: CHO-RD-HGA16; conditions: single concentration; for Emax: CHO-RD-HGA16, agonist screen, control agonist DPDPE; for DOR Calcium % DPDPE Inhibition: antagonist screen, vs EC60 of DPDPE
Experimental: (§1) Compounds were evaluated for kappa (KOR), mu (MOR), and delta (DOR) opioid receptor agonist and antagonist activity in three individual cell lines overexpressing Gαq16 (CHO-RD-HGA16, Molecular Devices) and the human kappa, mu, and delta opioid receptors, respectively. The day before the assay, cells were plated into 96-well black-walled assay plates at 30,000 cells/well in Ham's F12 supplemented with 10% fetal bovine serum, and 100 units of penicillin and streptomycin. The cells were incubated overnight at 37° C., 5% CO2. Prior to the assay, Calcium 5 dye (Molecular Devices) was reconstituted according to the manufacturer's instructions. The reconstituted dye was diluted 1:40 in pre-warmed (37° C.) assay buffer (1×HBSS, 20 mM HEPES, 2.5 mM probenecid, pH 7.4 at 37° C.). Growth medium was removed and the cells were gently washed with 100 μL of pre-warmed (37° C.) assay buffer. The cells were incubated for 45 minutes at 37° C., 5% CO2 in 200 μL of the diluted Calcium 5 dye. For the agonist screen, a single concentration of each test compound and receptor-specific controls (U69,593, DAMGO, and DPDPE for KOR, MOR, and DOR, respectively) were prepared at 10× the desired final concentration in 1% DMSO/assay buffer, aliquoted into a 96-well polystyrene plate, and warmed to 37° C. After the dye-loading incubation period, pretreatment solution was added to each well (25 μL of 9% DMSO/assay buffer) and, after 15 min, the plate was read with a FlexStation II (Molecular Devices). Calcium-mediated changes in fluorescence were monitored every 1.52 seconds over a 60 second time period, with the FlexStation II adding 50 μL of test compounds at the 19 second time point (excitation at 485 nm, detection at 525 nm). Peak kinetic reduction (SoftMax, Molecular Devices) relative fluorescence units (RFU) were used to calculate % control agonist Emax with the equation % Emax=(test compound RFU/control agonist RFU)×100. For the antagonist screens, the same procedure was followed except that the pretreatment solution consisted of the test compounds (prepared at […] the desired final concentration in 9% DMSO/assay buffer) and the FlexStation added the EC60 concentration (prepared at 10× the desired final concentration in 1% DMSO/assay buffer) of each respective control agonist. Peak RFU were used to calculate % control EC60 inhibition with the equation % inhibition=((EC60 RFU−test compound RFU)/EC60 RFU)×100. When IC50 determinations were made, the same antagonist screen procedure was followed except that cells were pretreated with 8-pt concentration-response curves of the test compounds. Peak RFU were plotted against the log of compound concentration using non-linear regression analysis to generate IC50 values (GraphPad Prism). Each test sample was analyzed in duplicate in two independent experiments.

[2] = biological target: KOR (Homo sapiens, UniProt P41145); assay: KOR calcium mobilization agonist/antagonist screen (CHO-RD-HGA16 cells); parameters: host or cells: CHO-RD-HGA16; conditions: single concentration; for Emax: CHO-RD-HGA16, agonist screen, control agonist U69,593; for KOR Calcium % U69, 593 Inhibition: antagonist screen, vs EC60 of U69,593
Sequence of KOR (P41145 whole entry): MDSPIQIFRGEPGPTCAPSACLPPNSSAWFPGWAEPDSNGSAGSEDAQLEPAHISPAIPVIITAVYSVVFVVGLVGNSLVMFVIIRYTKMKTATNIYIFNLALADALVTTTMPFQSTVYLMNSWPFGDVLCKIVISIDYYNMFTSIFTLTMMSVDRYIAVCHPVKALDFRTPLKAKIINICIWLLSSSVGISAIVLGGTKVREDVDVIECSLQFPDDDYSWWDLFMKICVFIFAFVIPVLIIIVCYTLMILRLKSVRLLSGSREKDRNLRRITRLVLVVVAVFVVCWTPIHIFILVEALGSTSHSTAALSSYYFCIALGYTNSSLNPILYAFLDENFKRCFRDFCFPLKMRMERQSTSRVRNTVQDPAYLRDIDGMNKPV
Experimental: as §1

[3] = biological target: ACKR3 (Homo sapiens, UniProt P25106); assay: ACKR3 β-arrestin recruitment assay (PathHunter, β-galactosidase complementation); conditions: for Emax: read-out: ACKR3 β-arrestin % CXCL12 Emax ± SEM; for EC50: stable human ACKR3-β-arrestin-2-CHO cells, mean ± SEM, at least two independent experiments in duplicate
Sequence of ACKR3 (P25106 whole entry): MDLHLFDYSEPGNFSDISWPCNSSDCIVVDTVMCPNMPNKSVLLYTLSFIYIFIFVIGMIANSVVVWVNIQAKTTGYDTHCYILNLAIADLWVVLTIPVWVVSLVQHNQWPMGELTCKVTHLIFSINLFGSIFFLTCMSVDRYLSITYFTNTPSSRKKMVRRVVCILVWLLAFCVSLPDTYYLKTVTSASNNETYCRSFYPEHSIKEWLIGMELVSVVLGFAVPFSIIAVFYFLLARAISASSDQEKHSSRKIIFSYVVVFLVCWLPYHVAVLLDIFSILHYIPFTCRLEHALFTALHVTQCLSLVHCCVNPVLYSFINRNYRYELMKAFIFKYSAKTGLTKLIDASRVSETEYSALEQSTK
Method in brief: (§2)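 Agonist mode in PathHunter CHO cells expressing human ACKR3-β-arrestin-2, compounds added in DPBS/1% DMSO for 1.5 hr at 37° C, then detection 1 hr at room temperature, luminescence read. CXCR4 run in C2C12 cells with a 3 hr Cell Plating Reagent 4 preincubation. EC50 and % Emax from three-parameter fits, CXCL-12 as reference agonist; ≥2 independent experiments in duplicate.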

[4] = biological target: T1, human CXCR4 (Homo sapiens, UniProt P61073); assay: CXCR4 β-arrestin recruitment assay (PathHunter); conditions: human CXCR4-C2Cl2 cells, relative to CXCL-12
T1 construct: host or cells: C2C12
T1 sequence (P61073 whole entry): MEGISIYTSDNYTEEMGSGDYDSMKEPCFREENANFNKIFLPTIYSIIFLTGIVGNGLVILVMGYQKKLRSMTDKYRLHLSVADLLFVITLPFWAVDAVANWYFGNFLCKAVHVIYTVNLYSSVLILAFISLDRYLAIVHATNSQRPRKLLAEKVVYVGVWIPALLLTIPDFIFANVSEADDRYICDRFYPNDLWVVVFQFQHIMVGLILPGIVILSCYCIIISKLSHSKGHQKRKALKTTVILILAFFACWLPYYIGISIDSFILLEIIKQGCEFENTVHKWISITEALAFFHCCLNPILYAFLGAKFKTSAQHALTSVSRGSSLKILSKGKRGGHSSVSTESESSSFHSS
Method in brief: as §2

[5] = biological target: MOR (Homo sapiens, UniProt P35372); assay: MOR calcium mobilization agonist/antagonist screen (CHO-RD-HGA16 cells); parameters: host or cells: CHO-RD-HGA16; conditions: single concentration; for Emax: CHO-RD-HGA16, agonist screen, control agonist DAMGO; for MOR Calcium % DAMGO Inhibition: antagonist screen, vs EC60 of DAMGO
Sequence of MOR (P35372 whole entry): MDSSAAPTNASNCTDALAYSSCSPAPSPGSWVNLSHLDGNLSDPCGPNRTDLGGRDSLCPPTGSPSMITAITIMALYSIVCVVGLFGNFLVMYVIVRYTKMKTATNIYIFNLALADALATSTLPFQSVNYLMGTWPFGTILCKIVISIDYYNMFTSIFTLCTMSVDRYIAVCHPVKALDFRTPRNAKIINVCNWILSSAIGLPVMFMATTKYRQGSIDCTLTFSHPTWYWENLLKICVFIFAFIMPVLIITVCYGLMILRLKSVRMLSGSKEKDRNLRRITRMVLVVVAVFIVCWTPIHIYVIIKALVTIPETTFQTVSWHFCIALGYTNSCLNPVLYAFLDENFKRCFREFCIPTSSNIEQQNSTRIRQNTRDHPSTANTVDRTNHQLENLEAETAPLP
Experimental: as §1

[6] = biological target: T2, CaV 3.2 (Homo sapiens, UniProt O95180); assay: CaV 3.2 calcium assay in stable human CaV3.2-HEK293 cells; conditions: control agonist calcium chloride
T2 construct: expressed in transfected cells
T2 sequence (O95180 whole entry): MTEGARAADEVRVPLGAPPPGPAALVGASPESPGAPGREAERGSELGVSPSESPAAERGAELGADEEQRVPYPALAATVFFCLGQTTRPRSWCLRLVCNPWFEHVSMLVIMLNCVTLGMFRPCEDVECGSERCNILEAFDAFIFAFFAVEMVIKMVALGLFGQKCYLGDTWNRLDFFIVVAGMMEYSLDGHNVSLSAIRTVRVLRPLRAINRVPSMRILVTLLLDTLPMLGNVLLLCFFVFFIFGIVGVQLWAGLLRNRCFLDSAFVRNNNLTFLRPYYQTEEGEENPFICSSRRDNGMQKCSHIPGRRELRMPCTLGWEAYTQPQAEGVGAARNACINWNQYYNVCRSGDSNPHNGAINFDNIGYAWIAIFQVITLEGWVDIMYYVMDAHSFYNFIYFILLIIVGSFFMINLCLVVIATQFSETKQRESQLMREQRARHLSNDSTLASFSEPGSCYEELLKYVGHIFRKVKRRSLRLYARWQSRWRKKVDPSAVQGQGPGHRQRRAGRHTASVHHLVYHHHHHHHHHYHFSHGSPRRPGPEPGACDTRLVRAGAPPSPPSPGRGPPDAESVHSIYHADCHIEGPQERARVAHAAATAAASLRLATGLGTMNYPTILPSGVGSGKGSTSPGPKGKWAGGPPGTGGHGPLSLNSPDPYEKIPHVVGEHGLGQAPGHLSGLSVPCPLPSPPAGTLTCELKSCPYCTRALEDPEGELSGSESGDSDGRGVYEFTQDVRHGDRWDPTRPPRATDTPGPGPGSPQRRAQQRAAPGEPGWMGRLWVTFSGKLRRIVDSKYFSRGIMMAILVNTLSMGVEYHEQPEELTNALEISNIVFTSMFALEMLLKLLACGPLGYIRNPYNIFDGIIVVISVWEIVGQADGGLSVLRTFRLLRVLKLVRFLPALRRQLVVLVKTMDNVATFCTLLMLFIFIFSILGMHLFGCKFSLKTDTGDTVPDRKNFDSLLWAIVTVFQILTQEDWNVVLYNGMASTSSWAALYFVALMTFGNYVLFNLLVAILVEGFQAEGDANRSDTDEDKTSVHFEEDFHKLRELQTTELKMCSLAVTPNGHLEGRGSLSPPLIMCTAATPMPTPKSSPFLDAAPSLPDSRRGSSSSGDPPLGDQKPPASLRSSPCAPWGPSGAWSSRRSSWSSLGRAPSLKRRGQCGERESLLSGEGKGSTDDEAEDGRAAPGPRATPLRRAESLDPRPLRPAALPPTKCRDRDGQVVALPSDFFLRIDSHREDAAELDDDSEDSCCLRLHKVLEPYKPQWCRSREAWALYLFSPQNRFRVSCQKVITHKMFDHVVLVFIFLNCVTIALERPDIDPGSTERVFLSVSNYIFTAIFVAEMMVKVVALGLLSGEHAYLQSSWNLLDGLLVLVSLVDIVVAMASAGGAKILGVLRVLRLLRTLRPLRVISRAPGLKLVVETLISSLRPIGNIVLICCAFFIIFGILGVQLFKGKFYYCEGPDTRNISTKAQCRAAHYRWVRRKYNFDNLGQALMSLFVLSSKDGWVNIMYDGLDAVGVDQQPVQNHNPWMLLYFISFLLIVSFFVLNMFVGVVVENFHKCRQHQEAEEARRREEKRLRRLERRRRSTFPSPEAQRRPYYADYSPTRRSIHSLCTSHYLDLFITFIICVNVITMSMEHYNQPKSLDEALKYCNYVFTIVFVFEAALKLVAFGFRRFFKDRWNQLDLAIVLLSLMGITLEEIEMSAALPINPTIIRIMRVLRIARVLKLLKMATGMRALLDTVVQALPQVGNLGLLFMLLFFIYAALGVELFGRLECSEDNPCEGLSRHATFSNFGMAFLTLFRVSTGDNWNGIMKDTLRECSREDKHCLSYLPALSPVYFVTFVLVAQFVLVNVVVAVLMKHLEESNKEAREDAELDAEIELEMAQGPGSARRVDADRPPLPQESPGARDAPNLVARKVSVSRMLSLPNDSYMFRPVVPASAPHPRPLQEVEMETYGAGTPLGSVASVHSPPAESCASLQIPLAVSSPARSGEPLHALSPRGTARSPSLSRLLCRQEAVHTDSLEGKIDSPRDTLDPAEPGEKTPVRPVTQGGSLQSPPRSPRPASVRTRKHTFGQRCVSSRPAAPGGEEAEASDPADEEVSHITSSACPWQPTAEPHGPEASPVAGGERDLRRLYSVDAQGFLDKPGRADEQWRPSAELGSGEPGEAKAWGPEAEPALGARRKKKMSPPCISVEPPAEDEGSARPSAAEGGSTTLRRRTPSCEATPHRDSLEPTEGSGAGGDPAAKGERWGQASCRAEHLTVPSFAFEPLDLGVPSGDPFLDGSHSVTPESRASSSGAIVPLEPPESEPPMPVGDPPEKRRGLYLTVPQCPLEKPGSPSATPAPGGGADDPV
Experimental: as §1
Compounds were evaluated for activity at CaV 3.2 using stable human CaV3.2-HEK293 cells and the control agonist calcium chloride. The day before the assay, cells were plated into 96-well black-walled assay plates coated with poly-D-lysine in DMEM-F12 supplemented with 10% fetal bovine serum, 100 units penicillin/streptomycin, and 500 μM sodium pyruvate, and incubated at 37° C., 5% CO2 overnight. Prior to the assay, Calcium 5 dye (Molecular Devices) was reconstituted according to the manufacturer instructions. The reconstituted dye was diluted 1:10 in pre-warmed (37° C.) assay buffer (1×HBSS, […], […], pH 7.4 at 37° C.). The cells were incubated for 45 minutes at 37° C., 5% CO2 in 200 μL of the diluted Calcium 5 dye. Compounds were prepared as described above and the plate was read with a FLIPR Tetra (Molecular Devices). Calcium-mediated changes in fluorescence were monitored every 1 second over a 60 second time period, with the Tetra adding 25 μL of appropriate compound at the 10 second time point (excitation at 470-495 nm, detection at 515-575 nm). […]

Sequence of DOR (P41143 whole entry): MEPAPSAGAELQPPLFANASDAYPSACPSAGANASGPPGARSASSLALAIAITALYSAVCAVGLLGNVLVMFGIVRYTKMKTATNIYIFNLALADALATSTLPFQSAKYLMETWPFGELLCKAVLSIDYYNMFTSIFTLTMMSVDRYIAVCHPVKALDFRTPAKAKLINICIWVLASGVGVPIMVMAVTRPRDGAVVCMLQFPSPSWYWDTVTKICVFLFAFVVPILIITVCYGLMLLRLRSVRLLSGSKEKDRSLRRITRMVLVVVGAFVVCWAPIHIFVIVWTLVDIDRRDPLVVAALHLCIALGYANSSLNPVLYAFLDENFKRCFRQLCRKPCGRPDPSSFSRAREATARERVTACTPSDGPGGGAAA

Emax [1] | DOR Calcium % DPDPE Inhibition [1] | Emax [2] | KOR Calcium % U69, 593 Inhibition [2] | Emax [3] | EC50 [3] | CXCR4 β-arrestin % CXCL-12Emax (n = 2) [4] | Emax [5] | MOR Calcium % DAMGO Inhibition [5] | CaV 3.2 % CaCl2 Inhibition [6] | Compound
0% | 18% | 2% | 23% | 81 ± 5% | 4.62 ± 0.41 µM | 6% | 0% | 15% | 21% | C=C1c2[nH]c3ccccc3c2CN2CC[C@@H]1/C(=C\C)C2 [WW-16, (4E,5R)-4-ethylidene-6-methylidene-1,3,4,5,6,7-hexahydro-2,5-ethanoazocino[4,3-b]indole]
0% | 11% | 1% | 5% | 146 ± 6% | 4.81 ± 0.45 µM | 7% | 1% | 4% | −11% | CCOC(=O)C1CCN(Cc2c[nH]c3ccccc23)CC1 [WW-17, ethyl 1-(1H-indol-3-ylmethyl)piperidine-4-carboxylate]
0% | 6% | 0% | 8% |  | > 10 µM | 8% | 0% | 2% | −2% | O=C(c1cc2ccccc2[nH]1)C1CCN(Cc2ccccc2)CC1 [WW-18, (1-Benzylpiperidin-4-yl)(1H-indol-2-yl)methanone]

— patent publication US20240059688A1, “CONOLIDINE ANALOGUES AS SELECTIVE ACKR3 MODULATORS FOR THE TREATMENT OF CANCER” (Luxembourg Institute of Health (LIH), priority 2020, published 2024)
